Laboratory results published in patent US11787812B2, “Substituted pyrazolo[4,3-d]pyrimidines and imidazo[5,1 -f][1,2,4]triazines as androgen receptor and phosphodiesterase dual inhibitors” (ILDONG PHARMACEUTICAL CO., LTD., priority 2020, dated 2023).

Assays:
Human androgen receptors = Human androgen receptors (Homo sapiens (Human), UniProt P10275, T878A); test: Androgen receptor (AR) radioligand binding assay; settings: receptors from human LNCaP cells, 0.5 nM [3H]Methyltrienolone, 20 hours at 4° C.; read-out: AR IC50
Description: Methods employed in this study have been adapted from the following literature procedure.
Human androgen receptors obtained from human LNCaP cells are used in modified HEPES buffer pH 7.4. […] Non-specific binding is estimated in the presence of 1 μM testosterone. […] (See, e.g., Traish, A. M et al., Binding of 7α, 17α-dimethyl-19-nortestosterone (Mibolerone) to androgen and progesterone receptors in human and animal tissues. Endocrinology. 118(4): 1327-1333, 1986).
Compounds are screened at 10 μM.
Where presented, IC50 values were determined by a non-linear, least squares regression analysis using MathIQ™ (ID Business Solutions Ltd., UK).

human PDE-5A1 = human PDE-5A1 (Homo sapiens (Human), UniProt O76074); test: Human PDE-5A1 inhibition assay (fluorescence polarization, FAM-cGMP); type: biochemical; settings: human PDE5A1, 100 nM FAM-cGMP, 60 minutes room temperature
Text: This example illustrates the in vitro inhibition of human PDE-5A1 by exemplary compounds of this disclosure (e.g., as described herein).
Sildenafil citrate (Catalog no. LKT-S3313, Axxora, San Diego, CA), Vardenafil hydrochloride trihydrate (Catalog no. SML2103, Sigma-Aldrich, St. Louis, MO), PDE Assay Buffer (Catalog no. 60393, BPS bioscience, San Diego, CA), PDE Binding Agent (Catalog no. 60390, BPS bioscience, San Diego, CA) and PDE Binding Agent Diluent (cGMP, Catalog no. 60392, BPS bioscience, San Diego, CA) were used for assays. Test compounds were supplied by Ildong Pharmaceuticals Co., Ltd.
The serial dilution of the compounds was first performed in 100% DMSO with the highest concentration at 1 mM and 0.1 mM. Each intermediate compound dilution (in 100% DMSO) will then get directly diluted 10× fold into assay buffer for 10% DMSO and 5 μL of the dilution was added to a 50 μL reaction so that the final concentration of DMSO is 1% in all reactions.
The enzymatic reactions were conducted at room temperature for 60 minutes in a 50 μL mixture containing PDE assay buffer, 100 nM FAM-cGMP, a PDE enzyme (Table 2) and the test compounds.
After enzymatic reaction, 100 μL of a binding solution (1:100 dilution of the binding agent with the binding agent diluent) was added to each reaction and the reaction was performed at room temperature for 60 minutes.
Fluorescence intensity was measured at excitation of 485 nm and an emission of 528 nm using a Tecan Infinite M1000 microplate reader.
PDE activity assays were performed in duplicate at each concentration. Fluorescence intensity is converted to fluorescence polarization using the Tecan Magellan6 software. The fluorescence polarization (FPt) in absence of the compound in each data set was defined as 100% activity. In the absence of PDE and the compound, the value fluorescent polarization (FPb) in each data set was defined as 0% activity. The percent activity in the presence of compound was calculated according to Equation 1:
[formula] where FP=the fluorescence polarization in the presence of the compound.
The values of % activity versus a series of compound concentrations were then plotted using non-linear regression analysis of Sigmoidal dose-response curve generated with Equation 2:
[formula] where Y=percent activity, B=minimum percent activity, T=maximum percent activity, X=logarithm of compound, and Hill Slope=slope factor or Hill coefficient. The IC50 value was determined by the concentration causing a half-maximal percent activity. Results

androgen receptor (AR) = androgen receptor (AR) (Homo sapiens (Human), UniProt P10275); test: Androgen receptor (AR) reporter assay, antagonist screen activated by R1881; type: cell-based; settings: AR-UAS-bla GripTite 293 cells, antagonist mode, R1881 at EC80
Description: The protocols and results of this Example were carried out and obtained by Thermofisher Scientific.
Test compounds were received at 1000× (or greater) of the desired starting concentration in 100% DMSO. If compounds were supplied at greater that 1000× concentration, an initial dilution is made in 100% DMSO to bring the compounds to 1000× concentration. The 1000× test compounds were serially diluted (10 point ½-log increments) in 100% DMSO.
The Substrate Loading Solution consists of three Life Technologies reagents: Solution A (10 mM LiveBLAzer™-FRET B/G Substrate), Solution B and Solution C.
Androgen Receptor (AR)—Antagonist Screen, Activated by R1881
AR-UAS-bla GripTite™ 293 cells were thawed and resuspended in Assay Media (DMEM phenol red free, 2% CD-treated FBS, 0.1 mM NEAA, 1 mM Sodium Pyruvate, 100 U/mL/100 μg/mL Pen/Strep) to a concentration of 312,500 cells/mL. 4 μL of a 10× serial dilution of Cyproterone Acetate (control antagonist starting concentration, 3,160 nM) or compounds are added to appropriate wells of a Poly-D-Lysine assay plate. 32 μL of cell suspension was added to the wells and pre-incubated at 37° C./5% CO2 in a humidified incubator with compounds and control antagonist titration for 30 minutes. 4 μL of 10× control agonist R1881 at the pre-determined EC80 concentration was added to wells containing the control antagonist or compounds. The plate was incubated for 16-24 hours at 37° C./5% CO2 in a humidified incubator. 8 μL of 1 μM Substrate Loading Solution is added to each well and the plate was incubated for 2 hours at room temperature. The plate was read on a fluorescence plate reader (Tecan Safire^2).

Chain of androgen receptor (AR) (P10275 other isoform, or with tags, fused parts or gaps): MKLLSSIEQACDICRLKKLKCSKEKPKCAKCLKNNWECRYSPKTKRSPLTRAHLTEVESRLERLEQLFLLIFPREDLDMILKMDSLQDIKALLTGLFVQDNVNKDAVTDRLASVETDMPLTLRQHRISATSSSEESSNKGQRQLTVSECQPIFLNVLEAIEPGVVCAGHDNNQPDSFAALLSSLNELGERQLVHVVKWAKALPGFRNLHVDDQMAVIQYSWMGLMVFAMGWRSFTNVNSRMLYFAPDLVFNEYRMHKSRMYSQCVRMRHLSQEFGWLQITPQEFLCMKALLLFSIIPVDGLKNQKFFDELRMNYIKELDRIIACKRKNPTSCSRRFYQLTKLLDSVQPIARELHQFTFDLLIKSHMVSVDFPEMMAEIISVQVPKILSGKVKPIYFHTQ
Chain of Human androgen receptors (P10275 whole entry T878A): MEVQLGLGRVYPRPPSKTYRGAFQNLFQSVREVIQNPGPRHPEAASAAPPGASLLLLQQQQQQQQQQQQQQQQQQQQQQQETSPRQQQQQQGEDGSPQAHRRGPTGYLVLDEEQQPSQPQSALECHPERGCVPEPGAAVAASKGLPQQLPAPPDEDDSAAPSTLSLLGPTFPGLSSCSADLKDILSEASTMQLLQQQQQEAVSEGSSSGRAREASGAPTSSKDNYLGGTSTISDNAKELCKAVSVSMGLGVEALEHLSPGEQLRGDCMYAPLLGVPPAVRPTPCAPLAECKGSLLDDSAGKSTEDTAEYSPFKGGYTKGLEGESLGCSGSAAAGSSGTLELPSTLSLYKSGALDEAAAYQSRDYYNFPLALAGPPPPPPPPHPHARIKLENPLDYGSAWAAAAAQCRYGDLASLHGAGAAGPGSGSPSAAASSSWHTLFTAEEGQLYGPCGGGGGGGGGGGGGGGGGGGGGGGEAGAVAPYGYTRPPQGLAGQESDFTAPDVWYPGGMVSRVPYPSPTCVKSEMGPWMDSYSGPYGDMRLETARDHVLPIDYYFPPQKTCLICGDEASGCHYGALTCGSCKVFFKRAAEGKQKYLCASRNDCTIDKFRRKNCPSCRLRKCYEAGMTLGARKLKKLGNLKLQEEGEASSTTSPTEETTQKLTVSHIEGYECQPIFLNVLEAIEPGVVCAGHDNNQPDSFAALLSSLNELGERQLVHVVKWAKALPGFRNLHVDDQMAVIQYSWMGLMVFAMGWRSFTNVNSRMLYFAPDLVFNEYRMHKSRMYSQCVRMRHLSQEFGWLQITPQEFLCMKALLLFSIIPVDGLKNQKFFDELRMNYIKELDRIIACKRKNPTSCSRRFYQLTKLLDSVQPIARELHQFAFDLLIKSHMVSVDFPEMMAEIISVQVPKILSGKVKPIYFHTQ

| Structure (SMILES) | IC50 (Human androgen receptors) [nM] | IC50 (human PDE-5A1) [nM] | IC50 (androgen receptor (AR)) [nM] |
| --- | --- | --- | --- |
| CCCc1nc(C)c2c(=O)[nH]c(-c3cc(N4C(=S)N(c5ccc(C#N)c(C(F)(F)F)c5)C(=O)C45CCCC5)ccc3OCC)nn12 [Compound 38, 4-(1-(4-ethoxy-3-(5-methyl-4-oxo-7-propyl-3,4-dihydroimidazo[5,1-f][1,2,4]triazin-2-yl)phenyl)-4-oxo-2-thioxo-1,3-diazaspiro[4.4]nonan-3-yl)-2-(trifluoromethyl)benzonitrile] | < 50 | ≤ 10 | ≤ 500 |
| CCCc1nc(C)c2c(=O)[nH]c(-c3cc(N4C(=S)N(c5ccc(C#N)c(C(F)(F)F)c5F)C(=O)C4(C)C)ccc3OCC)nn12 [Compound 47, 4-(3-(4-ethoxy-3-(5-methyl-4-oxo-7-propyl-3,4-dihydroimidazo[5,1-f][1,2,4]triazin-2-yl)phenyl)-4,4-dimethyl-5-oxo-2-thioxoimidazolidin-1-yl)-3-fluoro-2-(trifluoromethyl)benzonitrile] | < 50 | ≤ 10 | ≤ 500 |
| CCCc1nc(C)c2c(=O)[nH]c(-c3cc(N4C(=S)N(c5ccc(C#N)c(C(F)(F)F)c5F)C(=O)C45CCC5)ccc3OCC)nn12 [Compound 48, 4-(5-(4-ethoxy-3-(5-methyl-4-oxo-7-propyl-3,4-dihydroimidazo[5,1-f][1,2,4]triazin-2-yl)phenyl)-8-oxo-6-thioxo-5,7-diazaspiro[3.4]octan-7-yl)-3-fluoro-2-(trifluoromethyl)benzonitrile] | < 50 | ≤ 10 | ≤ 500 |
| CCCc1nc(C)c2c(=O)[nH]c(-c3cc(N4C(=S)N(c5ccc(C#N)c(C(F)(F)F)c5F)C(=O)C45CCOC5)ccc3OCC)nn12 (stereo not drawn) [Compound 49, 4-(1-(4-ethoxy-3-(5-methyl-4-oxo-7-propyl-3,4-dihydroimidazo[5,1-f][1,2,4]triazin-2-yl)phenyl)-4-oxo-2-thioxo-7-oxa-1,3-diazaspiro[4.4]nonan-3-yl)-3-fluoro-2-(trifluoromethyl)benzonitrile] | < 50 | ≤ 10 | 500 to 1000 |
| CCCc1nc(C)c2c(=O)[nH]c(-c3cc(N4C(=S)N(c5ccc(C#N)c(C(F)(F)F)c5F)C(=O)C45CCCC5)ccc3OCC)nn12 [Compound 50, 4-(1-(4-ethoxy-3-(5-methyl-4-oxo-7-propyl-3,4-dihydroimidazo[5,1-f][1,2,4]triazin-2-yl)phenyl)-4-oxo-2-thioxo-1,3-diazaspiro[4.4]nonan-3-yl)-3-fluoro-2-(trifluoromethyl)benzonitrile] | < 50 | ≤ 10 | ≤ 500 |
